In patent publication US12502369B2, “Methods of cancer treatment” (K-GEN, INC., priority 2015, dated 2025):
Like-named read-outs stand apart in the source and are kept apart here.

Legend:
Capan-1 = assay: Proliferation assay (CellTiter Glo), Capan-1; format: cell-based; details: for EC50: Homo sapiens
Description: (§1) Briefly, cells at a density of 1,000-10,000 cells/well were seeded in 96-well plates and incubated at 37′C for 24 hours. A series of 9 different concentrations of compound stocks (500×) were created by 3-fold serial dilution in DMSO. These compounds were further diluted in culture media and then added to cells so that the final DMSO concentration was 0.2%. After 96 hours of incubation, 50 μL of CellTiter Glo reagent (Promega) was added to each well and luminescence was measured after 10 minutes using EnVision (PerkinElmer). […] The dose range for most compounds was 4.6 nM-30 μM. The dose ranges for some compounds were adjusted downward to 0.46 nM-3 μM or 0.08 nM-0.5 μM or 0.03 nM-0.2 μM. Luminescence from cells treated with […] alone was set as Max and % of inhibition was calculated as follows: Inhibition %=(Max-Sample value)/Max*100. Data was analyzed using XL-fit software (ID Business Solutions Ltd.) and EC50, relative EC50, and % of top inhibition were calculated. The results are shown in Tables 3-6 for pancreatic cancer, lung cancer, colon/gastric cancer, and leukemia cell lines.

AsPC-1 = assay: Proliferation assay (CellTiter Glo), AsPC-1; format: cell-based; details: for EC50: Homo sapiens
Description: as §1

Panc2.03 = assay: Proliferation assay (CellTiter Glo), Panc2.03; format: cell-based; details: for EC50: Homo sapiens
Description: as §1

Panc2.13 = assay: Proliferation assay (CellTiter Glo), Panc2.13; format: cell-based
Description: as §1

A549 = assay: Proliferation assay (CellTiter Glo), A549; format: cell-based; details: for EC50: Homo sapiens
Description: as §1

H441 = assay: Proliferation assay (CellTiter Glo), H441; format: cell-based; details: for EC50: Homo sapiens
Description: as §1

H727 = assay: Proliferation assay (CellTiter Glo), H727; format: cell-based; details: for EC50: Homo sapiens
Description: as §1

LS180 = assay: Proliferation assay (CellTiter Glo), LS180; format: cell-based
Description: as §1

SW620 = assay: Proliferation assay (CellTiter Glo), SW620; format: cell-based
Description: as §1

HCT116 = assay: Proliferation assay (CellTiter Glo), HCT116; format: cell-based
Description: as §1

AGS = assay: Proliferation assay (CellTiter Glo), AGS; format: cell-based; details: for EC50: Homo sapiens
Description: as §1

HL60 = assay: Proliferation assay (CellTiter Glo), HL60; format: cell-based; details: for EC50: Homo sapiens
Description: as §1

THP1 = assay: Proliferation assay (CellTiter Glo), THP1; format: cell-based; details: for EC50: Homo sapiens
Description: as §1

CCRF-CEM = assay: Proliferation assay (CellTiter Glo), CCRF-CEM; format: cell-based; details: for EC50: Homo sapiens
Description: as §1

H838 = assay: Proliferation assay (CellTiter Glo), H838; format: cell-based; details: H838 (WT K-ras)
Description: as §1, with “calculated.” for “calculated. The results are shown in Tables 3-6 for pancreatic cancer, lung cancer, colon/gastric cancer, and leukemia cell lines.”
(§2) Other cancer cell lines having wild-type K-ras status and K-ras mutation at G12 were also screened using the PKC activator compounds. […] K-104 was tested in a range of 0.03 nM-0.2 μM. […] The dose ranges were adjusted downward to 0.46 nM-3 μM for K-102 and 0.08 nM-0.5 μM for K-103 for some cell lines.

H1915 = assay: Proliferation assay (CellTiter Glo), H1915; format: cell-based; details: H1915 (WT K-ras)
Description: as §1, with “calculated.” for “calculated. The results are shown in Tables 3-6 for pancreatic cancer, lung cancer, colon/gastric cancer, and leukemia cell lines.”
as §2

HT29 = assay: Proliferation assay (CellTiter Glo), HT29; format: cell-based; details: HT29 (WT K-ras)
Description: as §1, with “calculated.” for “calculated. The results are shown in Tables 3-6 for pancreatic cancer, lung cancer, colon/gastric cancer, and leukemia cell lines.”
as §2

Colo205 = assay: Proliferation assay (CellTiter Glo), Colo205; format: cell-based; details: Colo205 (WT K-ras)
Description: as §1, with “calculated.” for “calculated. The results are shown in Tables 3-6 for pancreatic cancer, lung cancer, colon/gastric cancer, and leukemia cell lines.”
as §2

RPMI8226 = assay: Proliferation assay (CellTiter Glo), RPMI8226; format: cell-based; details: RPMI8226 (K-ras: G12A)
Description: as §1, with “calculated.” for “calculated. The results are shown in Tables 3-6 for pancreatic cancer, lung cancer, colon/gastric cancer, and leukemia cell lines.”
as §2

[1] = system: PKCμ and PKCδ in HFL-1 cells; assay: Activation of PKC isoforms in non-cancerous lung fibroblast HFL-1 cells; format: cell-based, human; details: 30 minutes
[2] = system: PKCδ, PKCμ, c-Raf in xMiaPaCa-2, MiaPaCa-2, Panc6.03, Panc1; assay: Activation of PKC isoforms in pancreatic cancer cell lines, Western blot; format: cell-based
MH22A = assay: Anti-cell proliferative effects, MH22A; format: cell-based, mouse
lymphoma cell lines = assay: Proliferation assay, 9 lymphoma cell lines; format: cell-based
Description: PKC activators were tested in 9 lymphoma cell lines (Table 10). Proliferation assays were performed as described in Example 1.

[3] = absolute EC50, 96 hours, read-out: Ab EC50
[4] = relative EC50, 96 hours, read-out: Re EC50

With `CC(=O)O[C@@]12C[C@@H](C)[C@]3(O)C4C=C(C)C(=O)[C@@]4(O)CC(CO)=C[C@H]3[C@@H]1C2(C)C` (stereo partly drawn) [Compound K-101A, Prostratin] the Top inhibition % (Capan-1; 96 hours) was 37.1%, the EC50 (Capan-1; [3]) was greater than 30000 nM and the EC50 (Capan-1; [4]) was 310 nM. It also gave a Top inhibition % (AsPC-1; 96 hours) of 32.4%, an EC50 (AsPC-1; ASPC1, absolute EC50, 96 hours, read-out: Ab EC50) greater than 30000 nM and an EC50 (AsPC-1; ASPC1, relative EC50, 96 hours, read-out: Re EC50) of 270 nM. It also gave a Top inhibition % (Panc2.03; 96 hours) of 27.0%, an EC50 (Panc2.03; Panc203, absolute EC50, 96 hours, read-out: Ab EC50) greater than 30000 nM and an EC50 (Panc2.03; Panc203, relative EC50, 96 hours, read-out: Re EC50) of 120 nM. It also gave a Top inhibition % (Panc2.13; 96 hours) of 43.4%, an EC50 (Panc2.13; [3]) greater than 30000 nM and an EC50 (Panc2.13; [4]) of 17 nM. The Top inhibition % (A549; 96 hours) was 76.0%, the EC50 (A549; [3]) was 490 nM and the EC50 (A549; [4]) was 270 nM. It also gave a Top inhibition % (H441; 96 hours) of 42.1%, an EC50 (H441; NCI-H441, absolute EC50, 96 hours, read-out: Ab EC50) greater than 30000 nM and an EC50 (H441; NCI-H441, relative EC50, 96 hours, read-out: Re EC50) of 320 nM. For the same compound, the Top inhibition % (H727; 96 hours) was 48.3%, the EC50 (H727; NCI-H727, absolute EC50, 96 hours, read-out: Ab EC50) was greater than 30000 nM and the EC50 (H727; NCI-H727, relative EC50, 96 hours, read-out: Re EC50) was 190 nM. The Top inhibition % (LS180; 96 hours) was 4.4%, the EC50 (LS180; Homo sapiens, absolute EC50, 96 hours, read-out: Ab EC50) was greater than 30000 nM and the Top inhibition % (SW620; 96 hours) was 0.0%. It also gave an EC50 (SW620; Homo sapiens, SW-620, absolute EC50, 96 hours, read-out: Ab EC50) greater than 30000 nM, a Top inhibition % (HCT116; 96 hours) of 17.4% and an EC50 (HCT116; Homo sapiens, HCT-116, absolute EC50, 96 hours, read-out: Ab EC50) greater than 30000 nM. It also gave a Top inhibition % (AGS; 96 hours) of 21.7%, an EC50 (AGS; [3]) greater than 30000 nM and an EC50 (AGS; [4]) of 490 nM. The Top inhibition % (HL60; 96 hours) was 61.3%, the EC50 (HL60; HL-60, absolute EC50, 96 hours, read-out: Ab EC50) was 470 nM and the EC50 (HL60; HL-60, relative EC50, 96 hours, read-out: Re EC50) was 400 nM. The Top inhibition % (THP1; 96 hours) was 51.8%, the EC50 (THP1; THP-1, absolute EC50, 96 hours, read-out: Ab EC50) was 870 nM and the EC50 (THP1; THP-1, relative EC50, 96 hours, read-out: Re EC50) was 300 nM. For the same compound, the Top inhibition % (CCRF-CEM; 96 hours) was 35.9%, the EC50 (CCRF-CEM; [3]) was greater than 30000 nM and the EC50 (CCRF-CEM; [4]) was 51 nM. The “Top inhibition %” value (H838) was 10.1%, the “Top inhibition %” value (H1915) was 27.7% and the “Top inhibition %” value (HT29) was 12.8%. The “Top inhibition %” value (Colo205) was 83.6%, the “Top inhibition %” value (RPMI8226) was 32.39% and the “phosphorylation of PKCμ at Ser916 and Ser744/748, and PKCδ at Thr505 and Tyr311” value [1] was “resulted in phosphorylation”. The “phosphorylation of c-Raf at Ser338” value [2] was “induced phosphorylation”, the “phosphorylations of PKCδ at Thr505 and PKCμ at Ser744/748” value [2] was “increased” and the “sensitivity to anti-cell proliferative effects” value (MH22A) was “insensitive”. For the same compound, the “sensitivity of lymphoma cell lines” value (lymphoma cell lines; 9 lymphoma cell lines of Table 10) was “Seven lymphoma cell lines were very sensitive”, the “sensitivity of lymphoma cell lines” value (lymphoma cell lines; Daudi and Raji) was “not sensitive” and the IC50 (lymphoma cell lines; among the sensitive lymphoma cell lines, read-out: IC50 ranges) was 77 to 284 nM.
